From PubChem BioAssay AID1963873 (Molecular Pharmacology Branch, DTP, NCI, 2024)

Test system: 276233-004-R-J1-PDC KRAS spheroids with HUVEC/MSC, viability
Experiment: Anticancer human tumor 276233-004-R-J1-PDC patient-derived colon adenocarcinoma cell line growth inhibition [KRAS2]
Conditions: for viability, T/C: stronger effect = lower value
Procedure, shortened: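 KRAS-mutant tumor cells were grown as spheroids with HUVEC endothelial cells and human MSCs as stroma. Targeted agents were tested alone and with KRAS pathway inhibitors. Doses started at or near clinical Cmax, or 10 microM, descending half-log.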

[1] = curve of first compound, second compound 0.0316 µM
[2] = curve of first compound, second compound 0.1 µM
[3] = curve of first compound, second compound 0.316 µM
[4] = curve of first compound, second compound 1 µM
[5] = curve of first compound, second compound 3.16 µM
[6] = second compound 0.0316 µM, first compound 0.0316 µM
[7] = second compound 0.0316 µM, first compound 0.1 µM
[8] = second compound 0.0316 µM, first compound 0.316 µM
[9] = second compound 0.0316 µM, first compound 1 µM
[10] = second compound 0.0316 µM, first compound 3.16 µM
[11] = second compound 0.1 µM, first compound 0.0316 µM
[12] = second compound 0.1 µM, first compound 0.1 µM
[13] = second compound 0.1 µM, first compound 0.316 µM
[14] = second compound 0.1 µM, first compound 1 µM
[15] = second compound 0.1 µM, first compound 3.16 µM
[16] = second compound 0.316 µM, first compound 0.0316 µM
[17] = second compound 0.316 µM, first compound 0.1 µM
[18] = second compound 0.316 µM, first compound 0.316 µM
[19] = second compound 0.316 µM, first compound 1 µM
[20] = second compound 0.316 µM, first compound 3.16 µM
[21] = second compound 1 µM, first compound 0.0316 µM
[22] = second compound 1 µM, first compound 0.1 µM
[23] = second compound 1 µM, first compound 0.316 µM
[24] = second compound 1 µM, first compound 1 µM
[25] = second compound 1 µM, first compound 3.16 µM
[26] = second compound 3.16 µM, first compound 0.0316 µM
[27] = second compound 3.16 µM, first compound 0.1 µM
[28] = second compound 3.16 µM, first compound 0.316 µM
[29] = second compound 3.16 µM, first compound 1 µM
[30] = second compound 3.16 µM, first compound 3.16 µM
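Further: cells exposed to agents for seven days before viability read.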
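Wherever viability, T/C is given: 100% = DMSO vehicle control wells and lower values mean fewer viable cells.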

SMILES | IC50 [1] | IC50 [2] | IC50 [3] | IC50 [4] | IC50 [5] | viability, T/C [6] | viability, T/C [7] | viability, T/C [8] | viability, T/C [9] | viability, T/C [10] | viability, T/C [11] | viability, T/C [12] | viability, T/C [13] | viability, T/C [14] | viability, T/C [15] | viability, T/C [16] | viability, T/C [17] | viability, T/C [18] | viability, T/C [19] | viability, T/C [20] | other results
CC(=O)OC12COC1CC(O)C1(C)C(=O)C(O)C3=C(C)C(OC(=O)C(O)C(NC(=O)OC(C)(C)C)c4ccccc4)CC(O)(C(OC(=O)c4ccccc4)C21)C3(C)C (configuration not stated) + C=CC(=O)N1CCN(c2nc(OCC3CCCN3C)nc3c2CCN(c2cccc4cccc(C)c24)C3)CC1CC#N | > 3.16 µM | > 3.16 µM | > 3.16 µM | > 3.16 µM | > 3.16 µM | 90.6% | 103% | 96% | 112% | 94.8% | 96.3% | 76.4% | 86.8% | 91.5% | 95.5% | 83.4% | 73.6% | 72.2% | 99% | 107% | viability, T/C (second compound 0.0316 µM, first compound 0.01 µM): 82.1%; viability, T/C (second compound 0.1 µM, first compound 0.01 µM): 96.7%; viability, T/C (second compound 0.316 µM, first compound 0.01 µM): 97.8%; viability, T/C (second compound 1 µM, first compound 0.01 µM): 84.4%; viability, T/C [21]: 79.3%; viability, T/C [22]: 75.8%; viability, T/C [23]: 71.3%; viability, T/C [24]: 93.3%; viability, T/C [25]: 98.2%; viability, T/C (second compound 3.16 µM, first compound 0.01 µM): 103%; viability, T/C [26]: 87.8%; viability, T/C [27]: 88.4%; viability, T/C [28]: 87.2%; viability, T/C [29]: 95.7%; viability, T/C [30]: 112%
CNCc1ccccc1-c1csc(C(C)Nc2nc(C)nc3cc(OC)c(OC)cc23)c1 (configuration not stated) | – | – | – | – | – | – | – | – | – | – | – | – | – | – | – | – | – | – | – | – | viability, T/C (compound 10 µM): 1.13% [middle of 15 runs]; IC50 (compound alone, run of 07/19/2021): 1.25 µM [middle of 4 runs]; IC50 (compound alone, run of 07/26/2021): 1.67 µM [middle of 5 runs]
COC(=O)c1ccc2c(C(=Nc3ccc(N(C)C(=O)CN4CCN(C)CC4)cc3)c3ccccc3)c(O)[nH]c2c1 + C=CC(=O)N1CCN(c2nc(OCC3CCCN3C)nc3c2CCN(c2cccc4cccc(C)c24)C3)CC1CC#N | > 10 µM | > 10 µM | > 10 µM | > 10 µM | < 0.0316 µM | 86.4% | 95.1% | 77.5% | 83.6% | 81.8% | 77.4% | 65.8% | 59.2% | 71.7% | 89.7% | 83.6% | 87.5% | 76.2% | 77.1% | 78.6% | viability, T/C (second compound 0.0316 µM, first compound 10 µM): 93.2%; viability, T/C (second compound 0.1 µM, first compound 10 µM): 64%; viability, T/C (second compound 0.316 µM, first compound 10 µM): 70%; viability, T/C [21]: 88%; viability, T/C [22]: 78.8%; viability, T/C [23]: 69.8%; viability, T/C [24]: 62.1%; viability, T/C [25]: 69.1%; viability, T/C (second compound 1 µM, first compound 10 µM): 65.7%; viability, T/C [26]: 39.6%; viability, T/C [27]: 46.6%; viability, T/C [28]: 34.4%; viability, T/C [29]: 26.9%; viability, T/C [30]: 18.7%; viability, T/C (second compound 3.16 µM, first compound 10 µM): 3.45%
COc1cc2nccc(Oc3ccc(NC(=O)C4(C(=O)Nc5ccc(F)cc5)CC4)cc3)c2cc1OC | – | – | – | – | – | – | – | – | – | – | – | – | – | – | – | – | – | – | – | – | viability, T/C (compound 0.0316 µM): 93.2% [middle of 5 runs]; viability, T/C (compound 0.1 µM): 89.3% [middle of 5 runs]; viability, T/C (compound 3.16 µM): 93.1% [middle of 5 runs]; IC50 (curve of compound): > 10 µM
